Values of other authors in patent publication US20160347856A1, “Use of Anti-MUC1 Maytansinoid Immunoconjugate Antibody for the Treatment of Solid Tumors” (SANOFI, priority 2013, published 2016).

Columns and labels:
[1] = poor therapeutic effects because of high systemic toxicity; Foster et al. (1996), Wolff et al. (1996)
[2] = Bhuyan et al. (1982)
mice = conditions: single intravenous dose of 12.5 μg/kg; Reynolds et al. (1986)

Structure (SMILES)	Clinical evaluation [1]	Potency in vitro relative to doxorubicin, methotrexate and vincristine [2]	Toxicity after administration to mice (mice)
Cc1c[nH]c2c1[C@@]13C[C@@H]1CN(C(=O)c1cc4cc(NC(=O)c5cc6ccccc6o5)ccc4[nH]1)C3=CC2=O [Adozelesin]	disappointing results		
COc1c(O)c2c(c3cc(C(=O)N4CCc5c4c(O)c(OC)c4[nH]c(C(=O)N6CC7CC78C6=CC(=O)c6[nH]cc(C)c68)cc54)[nH]c13)CCN2C(N)=O (stereo not shown) [CC-1065]		about 1000 fold	delayed hepatotoxicity leading to mortality on day 50
CCN(CC)c1ccc2cc(C(=O)Nc3ccc4[nH]c(C(=O)N5C[C@@H](CCl)c6c5cc(OC(=O)Nc5ccccc5)c5[nH]cc(C)c65)cc4c3)oc2c1 [Carzelesin]	disappointing results		
